# Reference: EP1439177B1, “Antiviral activity and resolution of 2-hydroxymethyl-5-(5-fluorocytosin-1-yl)-1,3-oxathiolane” (Emory University, priority 1991, dated 1992)
# Where “and” joins values, the source holds several entries; their conditions need not be identical. Equal entries are not always repeated. Where two headings read alike, the source gives them in different places.
# Key:
# HIV = test: microbe, parasite or virus in culture; format: cell-based; settings: Human immunodeficiency virus 1; MT4 system
# HIV-1 (strain LAV) = test: microbe, parasite or virus in culture; format: cell-based; settings: Human immunodeficiency virus 1, PBMC; for inhibition at 0.001 µM / inhibition at 0.005 µM / inhibition at 0.01 µM / inhibition at 0.05 µM / inhibition at 0.1 µM / inhibition at 0.5 µM: read-out: % Inhibition (Corrected)
# Excerpt: It is often desirable to screen a number of racemic mixtures of nucleosides as a preliminary step to determine which warrant further resolution into enantiomerically enriched components and further evaluation of antiviral activity. The ability of nucleosides to inhibit HIV can be measured by various experimental techniques. The technique used herein, and described in detail below, measures the inhibition of viral replication in phytohemagglutinin (PHA) stimulated human peripheral blood mononuclear (PBM) cells infected with HIV-1 (strain LAV). The amount of virus produced is determined by measuring the virus-coded reverse transcriptase enzyme. The amount of enzyme produced is proportional to the amount of virus produced.
# • A. Three-day-old phytohemagglutinin-stimulated PBM cells (10^6 cells/ml) from hepatitis B and HIV-1 seronegative healthy donors were infected with HIV-1 (strain LAV) at a concentration of about 100 times the 50% tissue culture infectious dose (TICD 50) per ml and cultured in the presence and absence of various concentrations of antiviral compounds. • B. Approximately one hour after infection, the medium, with the compound to be tested (2 times the final concentration in medium) or without compound, was added to the flasks (5 ml; final volume 10 ml). AZT was used as a positive control. • C. The cells were exposed to the virus (about 2 x 10^5 dpm/ml, as determined by reverse transcriptase assay) and then placed in a CO2 incubator. HIV-1 (strain LAV) was obtained from the Center for Disease Control, Atlanta, Georgia. The methods used for culturing the PBM cells, harvesting the virus and determining the reverse transcriptase activity were those described by McDougal et al. (J. Immun. Meth. 76, 171-183, 1985) and Spira et al. (J. Clin. Meth. 25, 97-99, 1987), except that fungizone was not included in the medium (see Schinazi, et al., Antimicrob. Agents Chemother. 32, 1784-1787 (1988); Id., 34:1061-1067 (1990)). • D. On day 6, the cells and supernatant were transferred to a 15 ml tube and centrifuged at about 900 g for 10 minutes. Five ml of supernatant were removed and the virus was concentrated by centrifugation at 40,000 rpm for 30 minutes (Beckman 70.1 Ti rotor). The solubilized virus pellet was processed for determination of the levels of reverse transcriptase. Results are expressed in dpm/ml of sampled supernatant. Virus from smaller volumes of supernatant (1 ml) can also be concentrated by centrifugation prior to solubilization and determination of reverse transcriptase levels.
# [1] = Toxicity analysis in 2.2.15 cells, neutral red dye uptake; format: cell-based, human; settings: human, 2.2.15 cells
# Procedure: (§1) Toxicity analyses were performed to assess whether any observed antiviral effects were due to a general effect on cell viability. The method used herein was the measurement of the uptake of neutral red dye, a standard and widely used assay for cell viability in a variety of virus-host systems, including HSV and HIV. Toxicity analyses were performed in 96-well flat bottomed tissue culture plates. Cells for the toxicity analyses were cultured and treated with test compounds with the same schedule as described for the antiviral evaluations below. Each compound was tested at 4 concentrations, each in triplicate cultures (wells "A", "B", and "C"). Uptake of neutral red dye was used to determine the relative level of toxicity. The absorbance of internalized dye at 510 nm (Asin) was used for the quantitative analysis. Values are presented as a percentage of the average Asin values in 9 separate cultures of untreated cells maintained on the same 96-well plate as the test compounds. Dye uptake in the 9 control cultures on plate 5 ranged from 91.6% to 110.4%, and on plate 6 from 96.6% to 109%.
# 2.2.15 cells = test: as above; format: cell-based, human; settings: 330 µM
# Procedure: as §1
# HBV = settings: for INT[…] DNA RI: HBV DNA replication intermediates; for inhibition of the replication of HBV: at the tested levels (Table 7, 10 µM)
# Procedure: A summary and description of the assay for antiviral effects in this culture system and the analysis of HBV DNA has been described (Korba and Milman, 1991, Antiviral Res., 15:217). The antiviral evaluations were performed on two separate passages of cells. All wells, in all plates, were seeded at the same density and at the same time.
# Due to the inherent variations in the levels of both intracellular and extracellular HBV DNA, only depressions greater than 3.5-fold (for HBV virion DNA) or 3.0-fold (for HBV DNA replication intermediates) from the average levels for these HBV DNA forms in untreated cells are considered to be statistically significant [P<0.05]. The levels of integrated HBV DNA in each cellular DNA preparation (which remain constant on a per cell basis in these experiments) were used to calculate the levels of intracellular HBV DNA forms, thereby ensuring that equal amounts of cellular DNA were compared between separate samples.
# [2] = test system: granulocyte-macrophage precursor cells; settings: compared with the (+)-enantiomer and AZT; Figure 12
# [3] = Growth inhibition of mitogen-stimulated uninfected human PBM cells, trypan blue exclusion; format: cell-based; settings: human, pbm cells
# HIV-2 = test: microbe, parasite or virus in culture; settings: Human immunodeficiency virus 2, PBMC
# Procedure: Cell lines were obtained from either human donors, AIDS Research and Reference Reagent Program, NIH, Rockville, Maryland, ATCC, or the Red Cross. The CEM thymidine kinase deficient cells were prepared by sequential passage of CEM cells in the presence of 5-bromo-2'-deoxyuridine.
# [4] = test system: uninfected human PBM cells; test: Growth inhibition of mitogen-stimulated uninfected human PBM cells, trypan blue exclusion; format: cell-based; settings: uninfected human PBM cells, 6 days; error estimated at ±10%; read-out: Cytotoxicity IC50
# [5] = read-out: DYE UPTAKE (% OF CONTROL) WELL A
# [6] = read-out: DYE UPTAKE (% OF CONTROL) WELL C
# [7] = read-out: DYE UPTAKE (% OF CONTROL) WELLB
smiles,measurement,setting,value
CCCC(=O)OC[C@@H]1O[C@H](n2cc(F)c(N)nc2=O)CS1 (racemic) [5'-O-butyrate ester of (±)-FTC],EC50,HIV,40 nM
same,EC50,HIV-1 (strain LAV),0.0017 µM
CC(=O)Nc1nc(=O)n([C@@H]2CS[C@H](CO)O2)cc1F (racemic) [N^4-acetyl derivative of (±)-FTC],EC50,HIV-1 (strain LAV),0.0028 µM
"Nc1nc(=O)n([C@@H]2CS[C@H](CO)O2)cc1F (single isomer, unassigned) [(-)-FTC, (-)-β-L-2-hydroxymthyl-5-(5-fluorocytosin-1-yl)-1,3-oxathiolane]",viability at 10 µM,[1]; [5],94.3%
same,viability at 10 µM,[1]; [6],92.2%
same,viability at 10 µM,[1]; [7],94.9%
same,viability at 30 µM,[1]; [5],98.7%
same,viability at 30 µM,[1]; [6],96.4%
same,viability at 30 µM,[1]; [7],94.3%
same,viability at 100 µM,[1]; [5],64.1%
same,viability at 100 µM,[1]; [6],77.6%
same,viability at 100 µM,[1]; [7],66.6%
same,viability at 300 µM,[1]; [5],53%
same,viability at 300 µM,[1]; [6],51.5%
same,viability at 300 µM,[1]; [7],51.1%
same,toxicity at the highest concentration used for the toxicity tests,2.2.15 cells,appeared to be toxic
same,inhibition at 0.001 µM,HIV-1 (strain LAV),23.8%
same,inhibition at 0.005 µM,HIV-1 (strain LAV),43.3%
same,inhibition at 0.01 µM,HIV-1 (strain LAV),24.8%
same,inhibition at 0.05 µM,HIV-1 (strain LAV),76.2%
same,inhibition at 0.1 µM,HIV-1 (strain LAV),93.5%
same,inhibition at 0.5 µM,HIV-1 (strain LAV),97.6%
same,EC50,HIV-1 (strain LAV); read-out: Antiviral EC50,0.008 µM
same,EC50,HIV-1 (strain LAV); read-out: EC50,0.0077 µM
same,EC50,HIV-1 (strain LAV); read-out: EC50:µM,0.02 µM
same,HBV VIRION DNA DAY 0,"HBV; 0.25 µM, replicate wells",89 pg/ml CULTURE MEDIUM
same,HBV VIRION DNA DAY 4,"HBV; 0.25 µM, replicate wells",15 pg/ml CULTURE MEDIUM
same,INT[…] DNA RI,"HBV; 1 µM, 24 hours following the 9th day of treatment",2 pg/µg CELL DNA and 3 pg/µg CELL DNA and 4 pg/µg CELL DNA
same,HBV VIRION DNA DAY 0,"HBV; 1 µM, replicate wells",89 pg/ml CULTURE MEDIUM
same,HBV VIRION DNA DAY 4,"HBV; 1 µM, replicate wells",15 pg/ml CULTURE MEDIUM and 22 pg/ml CULTURE MEDIUM
same,INT[…] DNA MONO.,"HBV; 1 µM, episomal 3.2 kb HBV genomes, 24 hours following the 9th day of treatment",1.7 pg/µg CELL DNA and 1.4 pg/µg CELL DNA
same,INT[…] DNA RI,"HBV; 4 µM, 24 hours following the 9th day of treatment",1 pg/µg CELL DNA and 2 pg/µg CELL DNA
same,inhibition of the replication of HBV,HBV,significantly inhibited
same,toxicity (IC50) on colony formation,[2],less toxic
same,CC50 at 144 h,[3],> 100000 nM
same,EC50,HIV-2,0.7 nM
"Nc1nc(=O)n([C@H]2CS[C@@H](CO)O2)cc1F [(+)-FTC, (+)-β-D-2-hydroxymethyl-5-(5-fluorocytosin-1-yl)-1,3-oxathiolane]",viability at 10 µM,[1]; [5],90.9%
same,viability at 10 µM,[1]; [6],90.5%
same,viability at 10 µM,[1]; [7],99.4%
same,viability at 30 µM,[1]; [5],81.1%
same,viability at 30 µM,[1]; [6],88.1%
same,viability at 30 µM,[1]; [7],88.3%
same,viability at 100 µM,[1]; [5],77.7%
same,viability at 100 µM,[1]; [6],72.1%
same,viability at 100 µM,[1]; [7],66.3%
same,viability at 300 µM,[1]; [5],43.4%
same,viability at 300 µM,[1]; [6],58.5%
same,viability at 300 µM,[1]; [7],56.7%
same,toxicity at the highest concentration used for the toxicity tests,2.2.15 cells,appeared to be toxic
same,inhibition at 0.001 µM,HIV-1 (strain LAV),3.8%
same,inhibition at 0.005 µM,HIV-1 (strain LAV),-10.6%
same,inhibition at 0.01 µM,HIV-1 (strain LAV),-1.8%
same,inhibition at 0.05 µM,HIV-1 (strain LAV),11.8%
same,inhibition at 0.1 µM,HIV-1 (strain LAV),12.7%
same,inhibition at 0.5 µM,HIV-1 (strain LAV),71.4%
same,EC50,HIV-1 (strain LAV); read-out: Antiviral EC50,0.84 µM
same,EC50,HIV-1 (strain LAV); read-out: EC50,0.84 µM
same,EC50,HIV-1 (strain LAV); read-out: EC50:µM,0.28 µM
same,HBV VIRION DNA DAY 0,"HBV; 10 µM, replicate wells",58 pg/ml Culture Medium
same,HBV Virion DNA DAY 9,"HBV; 10 µM, day 9, sensitivity cutoff 0.1 pg/ml, replicate wells",0.1 pg/ml Culture Medium
same,inhibition of the replication of HBV,HBV,significantly inhibited
same,CC50 at 144 h,[3],> 100000 nM
same,EC50,HIV-2,26 nM
Cc1cn(C2CSC(CO)O2)c(=O)[nH]c1=O (stereo not shown) [DLS-010],CC50,[4],> 100000 nM
Cc1cn([C@H]2CS[C@@H](CO)O2)c(=O)nc1N [DLS-011],CC50,[4],> 100000 nM
Nc1nc(=O)n([C@H]2CS[C@@H](CO)O2)cc1Br [DLS-021],CC50,[4],> 100000 nM
Nc1nc(=O)n([C@H]2CS[C@@H](CO)O2)cc1Cl [DLS-023],CC50,[4],> 100000 nM
Nc1nc(=O)n([C@H]2CS[C@@H](CO)O2)cc1I [DLS-026],CC50,[4],> 100000 nM
O=c1[nH]c(=O)n([C@H]2CS[C@@H](CO)O2)cc1Cl [DLS-028],CC50,[4],> 100000 nM
Nc1nc(=O)n([C@@H]2CS[C@H](CO)O2)cc1C(F)(F)F [DLS-053],CC50,[4],> 100000 nM
